Key:
Settings in all cases: 72 h
Calu-3 [1] = experiment: drug sensitivity score (DSS) for viability; higher = more toxic; extreme values may be limits of the assay
HepG2 [2] = experiment: as above
U2OS [3] = experiment: as above
Vero E6 [4] = experiment: as above
Caco-2 [5] = experiment: cell viability relative to DMSO; higher = less toxic
Calu-3 [6] = experiment: as above
HepG2 [7] = experiment: as above
U2OS [8] = experiment: as above
Vero E6 [9] = experiment: as above
Calu-3 [10] = experiment: relative viability EC50 (midpoint between 100% and the lowest measured viability); higher = less toxic
HepG2 [11] = experiment: as above
U2OS [12] = experiment: as above
Caco-2 [13] = experiment: drug sensitivity score (DSS) for viability; higher = more toxic; extreme values may be limits of the assay
Caco-2 [14] = experiment: relative viability EC50 (midpoint between 100% and the lowest measured viability); higher = less toxic
Vero E6 [15] = experiment: as above

| Structure (SMILES) | drug sensitivity score (Calu-3 [1]) | drug sensitivity score (HepG2 [2]) | drug sensitivity score (U2OS [3]) | drug sensitivity score (Vero E6 [4]) | cell viability (Caco-2 [5]; 1 nM) [%] | cell viability (Caco-2 [5]; 10 nM) [%] | cell viability (Caco-2 [5]; 100 nM) [%] | cell viability (Caco-2 [5]; 1000 nM) [%] | cell viability (Caco-2 [5]; 10000 nM) [%] | cell viability (Calu-3 [6]; 1 nM) [%] | cell viability (Calu-3 [6]; 10 nM) [%] | cell viability (Calu-3 [6]; 100 nM) [%] | cell viability (Calu-3 [6]; 1000 nM) [%] | cell viability (Calu-3 [6]; 10000 nM) [%] | cell viability (HepG2 [7]; 1 nM) [%] | cell viability (HepG2 [7]; 10 nM) [%] | cell viability (HepG2 [7]; 100 nM) [%] | cell viability (HepG2 [7]; 1000 nM) [%] | cell viability (HepG2 [7]; 10000 nM) [%] | cell viability (U2OS [8]; 1 nM) [%] | cell viability (U2OS [8]; 10 nM) [%] | cell viability (U2OS [8]; 100 nM) [%] | cell viability (U2OS [8]; 1000 nM) [%] | cell viability (U2OS [8]; 10000 nM) [%] | cell viability (Vero E6 [9]; 1 nM) [%] | cell viability (Vero E6 [9]; 10 nM) [%] | cell viability (Vero E6 [9]; 100 nM) [%] | cell viability (Vero E6 [9]; 1000 nM) [%] | cell viability (Vero E6 [9]; 10000 nM) [%] | relative viability EC50 (Calu-3 [10]) [µM] | relative viability EC50 (HepG2 [11]) [µM] | relative viability EC50 (U2OS [12]) [µM] | drug sensitivity score (Caco-2 [13]) | relative viability EC50 (Caco-2 [14]) [µM] | relative viability EC50 (Vero E6 [15]) [µM] |
| --- | --- | --- | --- | --- | --- | --- | --- | --- | --- | --- | --- | --- | --- | --- | --- | --- | --- | --- | --- | --- | --- | --- | --- | --- | --- | --- | --- | --- | --- | --- | --- | --- | --- | --- | --- |
| CNC(=O)Oc1cccc2ccccc12 [carbaril] | 0 | 0 | 0 | 0 | – | – | – | – | – | – | – | – | – | – | – | – | – | – | – | – | – | – | – | – | – | – | – | – | – | – | – | – | – | – | – |
| COc1cc2ncn(-c3cc(OCc4ccccc4C(F)(F)F)c(C(N)=O)s3)c2cc1OC | 0.5 | 9.9 | 0.1 | 5.9 | 102 | 95.5 | 102 | 73.4 | 62.3 | 95.9 | 101 | 95.4 | 90 | 86.1 | 95.6 | 108 | 105 | 50 | 26.5 | 102 | 97.8 | 102 | 94.4 | 89.4 | 104 | 96 | 98.8 | 69.1 | 57.5 | > 10 | 0.743 | > 10 | 4.9 | – | – |
| Nc1nc2c(ncn2COC(CO)CO)c(=O)[nH]1 [ganciclovir] | 0 | 0 | 0 | 0 | – | – | – | – | – | – | – | – | – | – | – | – | – | – | – | – | – | – | – | – | – | – | – | – | – | – | – | – | – | – | – |
| Oc1nc(-c2ccc(C(F)(F)F)cc2)nc2c1CSCC2 [XAV-939] | 2.7 | 0 | 0 | 2.4 | 103 | 97 | 99.8 | 92.3 | 101 | 110 | 94 | 97.1 | 84.1 | 71.7 | 101 | 108 | 98.2 | 99.7 | 94.4 | 105 | 101 | 101 | 99.2 | 96.4 | 94.6 | 98.5 | 97 | 90.4 | 69.6 | – | > 10 | > 10 | 0 | > 10 | – |
| CCC(=O)O[C@@H]1CC(=O)O[C@H](C)C/C=C/C=C/[C@H](O)[C@H](C)C[C@H](CC=O)[C@H](O[C@@H]2O[C@H](C)[C@@H](O[C@H]3C[C@@](C)(O)[C@@H](OC(=O)CC)[C@H](C)O3)[C@H](N(C)C)[C@H]2O)[C@H]1OC [midecamycin] | – | 1.3 | 0 | 0 | 94.4 | 99.1 | 103 | 91.8 | 91.4 | – | – | – | – | – | 103 | 93.1 | 91.5 | 98 | 74 | 97.1 | 97 | 99.2 | 96.2 | 97.6 | 105 | 97.7 | 101 | 102 | 95.2 | – | – | > 10 | 0 | > 10 | > 10 |
| CC(C)NC(=O)COc1cccc(-c2nc(Nc3ccc4[nH]ncc4c3)c3ccccc3n2)c1 [KD025] | 0 | 0.8 | 2.7 | 1.5 | 104 | 100 | 102 | 97.8 | 70.5 | 95.6 | 108 | 89.4 | 105 | 108 | 98.7 | 96.8 | 107 | 86.8 | 94.5 | 97.2 | 103 | 97.5 | 101 | 46.5 | 105 | 99.1 | 104 | 97.3 | 72.8 | > 10 | > 10 | 3.29 | 1.6 | – | – |
| Nc1ncnc2c1c(-c1ccc(Cl)cc1)nn2-c1cccc(-c2cnnn2Cc2cccc(-c3ccccc3)c2)c1 [KB-SRC-4] | – | 0 | 0 | 0 | 99.1 | 94.7 | 99.7 | 93.6 | 101 | – | – | – | – | – | 107 | 98.4 | 99.1 | 99.5 | 111 | 95.2 | 96.5 | 95.5 | 101 | 103 | 97.7 | 99.1 | 95.9 | 93.7 | 105 | – | > 10 | > 10 | 0 | > 10 | > 10 |
| O=C1NCCc2[nH]c(-c3ccncc3)cc21 | 4.6 | 13.6 | 5.9 | 7.2 | 96.1 | 93.6 | 94.2 | 94.9 | 38.5 | 94 | 94.6 | 94.6 | 79.5 | 53.6 | 91.4 | 102 | 92.4 | 33.1 | 9.5 | 95.2 | 104 | 93.6 | 95.3 | 5.8 | 98 | 98.2 | 98.1 | 85.7 | 13.5 | – | 0.499 | 2.77 | 4.2 | 2.48 | 1.9 |
| O=[N+]([O-])c1ccc(O)c([N+](=O)[O-])c1 [2,4-dinitrophenol] | – | 0 | 0 | 0 | 89.3 | 96.8 | 82.7 | 98.8 | 73.4 | – | – | – | – | – | 100 | 89.5 | 110 | 106 | 103 | 96.2 | 102 | 106 | 105 | 97 | 94 | 103 | 100 | 92.9 | 99.1 | – | > 10 | > 10 | 1.8 | – | > 10 |
| O=C(O)COC(=O)Cc1ccccc1Nc1c(Cl)cccc1Cl [aceclofenac] | 0 | 0 | 0 | 0 | – | – | – | – | – | – | – | – | – | – | – | – | – | – | – | – | – | – | – | – | – | – | – | – | – | – | – | – | – | – | – |
| N=C(N)NC(=O)c1cnccn1 [pyrazinoylguanidine] | – | 0 | – | 0 | 107 | 100 | 101 | 99.7 | 101 | – | – | – | – | – | 104 | 97.1 | 94.9 | 99.1 | 104 | – | – | – | – | – | 99.8 | 106 | 104 | 106 | 99.7 | – | > 10 | – | 0 | > 10 | > 10 |
| Nc1c(CC(=O)O)cccc1C(=O)c1ccccc1 [amfenac] | – | 0 | 0 | 0 | 101 | 97.4 | 104 | 94.1 | 97.4 | – | – | – | – | – | 103 | 105 | 97.9 | 106 | 101 | 101 | 96 | 102 | 97.2 | 104 | 94.1 | 102 | 97.2 | 102 | 102 | – | > 10 | > 10 | 0 | > 10 | > 10 |
| Nc1ncn([C@@H]2O[C@H](CO)[C@@H](O)[C@H]2O)c(=O)n1 [azacitidine] | 3.5 | 3.1 | 0 | 5 | 87.3 | 104 | 96.1 | 90.1 | 67.9 | 102 | 90.9 | 88.5 | 87.2 | 64 | 97.9 | 99.7 | 95.9 | 94.1 | 57.8 | 98 | 102 | 98.6 | 102 | 98.4 | 97.3 | 102 | 95.9 | 90.5 | 37.3 | – | – | > 10 | 2.6 | – | 1.98 |
| c1ccc(C[C@H](c2ccccc2)N2CCCCC2)cc1 (racemic) [1-(1,2-diphenylethyl)piperidine-(+/-)] | – | 0.1 | 0 | 0 | 91.2 | 93.9 | 101 | 100 | 103 | – | – | – | – | – | 92.9 | 103 | 96.5 | 100 | 86.8 | 104 | 93.8 | 98.7 | 98.9 | 105 | 92.6 | 97.7 | 92.2 | 97.1 | 102 | – | > 10 | > 10 | 0 | > 10 | > 10 |
| CCn1c(O)nnc1-c1ccc(Cl)cc1 [5-(4chlorophenyl)-4-ethyl-2,4-dihydro-3H-1,2,4-triazol-3-one] | – | 0 | 1 | 0.4 | 116 | 112 | 112 | 91.6 | 79.1 | – | – | – | – | – | 112 | 111 | 102 | 98.3 | 94.7 | 100 | 103 | 99.8 | 98.1 | 78.6 | 97.9 | 102 | 102 | 106 | 79.6 | – | > 10 | > 10 | 1.6 | > 10 | > 10 |
| CC[C@H](C)[C@@H]([C@@H](CC(=O)N1CCC[C@H]1[C@H](OC)[C@@H](C)C(=O)N[C@@H](Cc1ccccc1)c1nccs1)OC)N(C)C(=O)[C@@H](NC(=O)[C@H](C(C)C)N(C)C)C(C)C [dolastatin-10] | – | 34 | 40 | 39 | 51.5 | 40.6 | 35 | 32.2 | 20.8 | – | – | – | – | – | 24.5 | 32.5 | 32.5 | 29.4 | 22.2 | 35.8 | 22.7 | 15.4 | 15.6 | 11.1 | 38.5 | 24.6 | 18.4 | 17.9 | 9.9 | – | < 0.001 | < 0.001 | 31.3 | < 0.001 | < 0.001 |
| Cc1ccc2c(c1)Cc1c(C(=O)NC3CCCCC3)nn(-c3ccc(Cl)cc3Cl)c1-2 [GP2a] | – | 0 | 0 | 0 | 91.8 | 89.6 | 97.3 | 95.4 | 91.7 | – | – | – | – | – | 100 | 102 | 99 | 88.9 | 99.7 | 95.8 | 99.4 | 97.4 | 105 | 102 | 99.5 | 96.2 | 99.8 | 100 | 100 | – | > 10 | > 10 | 0 | > 10 | > 10 |

— the supplement of paper PMC13380429
